Peptide text beside a SMILES is read from it. * marks the point of attachment. Cbz = O=C(OCc1ccccc1)*

Experimental findings from US20250057813A1, “APOPTOSIS RELATED PROTEIN IN THE TGF-BETA SIGNALING PATHWAY (ARTS) MIMETIC COMPOUNDS, COMPOSITIONS, METHODS AND USES THEREOF IN INDUCTION OF APOPTOSIS” (Carmel-Haifa University Economic Corporation Ltd., priority 2022, published 2025) are described below.

Test [1] concerns WT MEFs and Sept4/ARTS KO MEFs cells. The test is described as follows: Western blot of WT MEFs and Sept4/ARTS KO MEFs. Type of test: cell-based, mouse. To be noted: 20 or 40 μM, 24 hours. How it is done: (§1) Cells were lysed in whole-cell extract buffer [25 mM HEPES, pH 7.7, […], 1.5 mM MgCl2, 0.2 mM EDTA, 0.1% Triton X-100, 100 μg/ml phenylmethylsulfonyl fluoride (PMSF) and protease inhibitor cocktail (Roche, 1:100 dilution)] and placed on ice for 30 min (vortexing once after 15 min). After 30 minutes, the samples were centrifuged at 13,000×g for 10 minutes at 4° C. The supernatants containing total protein were measured for protein concentration using Bio-Rad Protein Assay Dye Reagent Concentrate Kit. 40 to […] was separated by sodium dodecyl sulfate-polyacrylamide gel electrophoresis (SDS-PAGE) (12% or 7.5%), followed by transfer to a nitrocellulose membrane. The membranes were blocked with 5% (w/v) non-fat dried skimmed milk powder in PBS supplemented with 0.05% Tween-20 (PBS-T) for 1 h at RT. Next, primary antibodies were added at 4° C. overnight or for 2 h at room temperature. Membranes were then incubated with secondary antibody for 1 h at RT and washed three times for 15 min each with PBS-T. Western Bright ECL (Advansta) was added to the membrane for 30-60 s and analyzed using Image Quant LAS-4000 (GE Healthcare Life Sciences) and Image Quant LAS-4000 software (GE Healthcare Life Sciences).
(In general: Immunoblotting shows a protein as a band on a membrane.)

Test [2] has as its system A375 human melanoma cells. The test is described as follows: SDS PAGE and Western blot analysis of A375 cells. The format is cell-based. The protocol:
(§2) The cells were lysed in WCE (whole-cell extract) buffer [25 mM Hepes, pH 7.7, 0.3M NaCl, 1.5 mM MgCl2, 0.2 mM EDTA, 0.1% Triton X-100, 100[μg/ml PMSF and protease inhibitor cocktail (Roche, 1:100 dilution)]. 100 μg of total cell protein, measured with the Bio-Rad Protein Assay kit, were separated by SDS-PAGE (12%) followed by transfer for 2 h on to a nitrocellulose membrane. The membrane was blocked with 5% (w/v) non-fat dried skimmed milk powder in PBS supplemented with 0.05% Tween20 (PBS-T) for 1 hour at room temperature (R.T). Membrane was then probed with primary antibody at 4° C. overnight. Next, the membrane was incubated with the appropriate HRP-conjugated secondary antibody, for 1 hour at R.T. and washed 15 min ×3 with PBS-T. WesternBright ECL (Advansta) was added to the membrane for 2 min and analyzed using ImageQuant LAS-4000 analyzer (GE Healthcare Life Sciences) & “ImageQuant LAS-4000” software (GE Healthcare Life Sciences). Densitometry analysis was performed using ImageQuant total lab 7 (GE Healthcare Life Sciences), image analysis software.
as §1

Test [3] concerns Sept4/ARTS KO MEFs, shARTS HeLa, A-375, WT MEFs, WT HeLa. The test is described as follows: Western blot of cell lines with different amounts of endogenous ARTS. Type of test: cell-based. To be noted: ABT-199 alone, 24 hrs. The protocol: as §2
The subject of test [4] is CCRF-CEM (acute lymphoblastic leukemia) cell line. In words: Western blot analysis of CCRF-CEM. Type of test: cell-based. Set-up: cleaved PARP and cleaved Caspase 3: dose or concentration left out as unconfirmed. How it is done:
as §2

Another test has as its system HL-60 leukemia cell line. In words: Western blot analysis of HL-60. The format is cell-based. As to conditions: 1 μM ABT199, 24 hrs. How it is done:
as §2

For a further test, the system named is p53-ARTS complex. In words: BiFC assay in WT MEFs (VN-p53 and VC-ARTS). Type of test: cell-based. To be noted: 200 μM Etoposide. The source says: The split-Venus BiFC system was used to evaluate close proximity indicating possible direct binding between pairs of proteins. The proteins were fused either to the N-terminal part of the VenusYFP (yellow fluorescence protein) (VN) or the C-terminal domain (VC). All Venus fragments were fused to the C-terminal sequences of these proteins. The Jun and bFos pair was used as a positive control (p.c.), and the Jun and bFosdeltaZTP pair was used as a negative control (n.c.). A vector encoding dsRed was used as a transfection efficiency marker.

The test system of the next test is sept4/ARTS KO MEFs. The test is described as follows: Western blot of Sept4/ARTS KO MEFs treated with proteasome inhibitor. As to conditions: MG-132, 20 μM for 6 hours. Type of test: cell-based, mouse. How it is done: as §1

For `COC(=O)c1[nH]c2ccc(Cl)cc2c1NC(=O)CN1CCN(Cc2ccccc2)CC1` [A4, 3-[2-(4-Benzyl-piperazin-1-yl)-acetylamino]-5-chloro-1H-indole-2-carboxylic acid methyl ester], in test [1], the XIAP levels entry was “downregulates” and the p53 levels result is on record as “upregulate”.
With `CC1(C)CCC(CN2CCN(c3ccc(C(=O)NS(=O)(=O)c4ccc(NCC5CCOCC5)c([N+](=O)[O-])c4)c(Oc4cnc5[nH]ccc5c4)c3)CC2)=C(c2ccc(Cl)cc2)C1` [ABT-199, 4-[4-[[2-(4-Chlorophenyl)-4,4-dimethyl-1-cyclohexen-1-yl]methyl]-1-piperazinyl]-N-[[3-nitro-4-[[(tetrahydro-2H-pyran-4-yl)methyl]amino]phenyl]sulfonyl]-2-(1H-pyrrolo[2,3-b]pyridin-5-yloxy)benzamide, reference compound], the ARTS levels result in test [2] (5 μM ABT-199, 24 hrs) is listed as “upregulated”; in test [3], “upregulated”. Besides, the “apoptotic markers, cleaved PARP and cleaved Caspase 3” value in test [2] (5 μM ABT-199, 24 hrs) was “upregulated”. Further, the BCL-2 levels entry in test [2] (10 μM ABT-199, 24 hrs) is listed as “upregulated”. In test [2] (ABT-199 alone, 2, 6 and 24 hrs), the Bcl-2 levels result is recorded as “upregulated”. Also, the “cleaved PARP and cleaved Caspase 3” value in test [4] (ABT-199, 24 hrs) is “upregulated”; with HL-60 leukemia cell line, “upregulated”. In test [4] (ABT-199 alone, 24 hrs), the “cleaved Caspase 3” value is on record as “increased”.
Regarding `COc1cc([C@@H]2c3cc4c(cc3[C@@H](O[C@@H]3O[C@@H]5CO[C@@H](C)O[C@H]5[C@H](O)[C@H]3O)[C@H]3COC(=O)[C@H]23)OCO4)cc(OC)c1O` [Etoposide], in the test on p53-ARTS complex, the “formation of p53-ARTS complex” value was “promotes”.
Take `CC(C)C[C@@H](C=O)NC(=O)[C@H](CC(C)C)NC(=O)[C@H](CC(C)C)NC(=O)OCc1ccccc1` [MG-132] (Cbz-Leu-Leu-Leu-aldehyde): in the test on sept4/ARTS KO MEFs, the p53 protein levels entry is listed as “accumulation”.
